In series [1] the test system is Staphylococcus aureus. Put plainly: Bactericidal activity against Staphylococcus aureus ATCC 29213 using fresh sample in DMSO after 24 to 48 hrs by CLSI method. In kind it is functional.
In series [2] the test system is Staphylococcus aureus. Put plainly: Antibacterial activity against methicillin-resistant Staphylococcus aureus ATCC 33591 assessed as growth inhibition using fresh sample in DMSO by CLSI method. In kind it is functional, organism-based.
The test system of series [3] is Staphylococcus aureus. The series can be described thus: Bactericidal activity against methicillin-resistant Staphylococcus aureus ATCC 33591 using fresh sample in DMSO after 24 to 48 hrs by CLSI method. In kind it is functional.
The subject of series [4] is Staphylococcus aureus. Put plainly: Antibacterial activity against methicillin-resistant Staphylococcus aureus EAMC30 assessed as growth inhibition using fresh sample in DMSO by CLSI method. In kind it is functional, organism-based.
Series [5] deals with Staphylococcus aureus. The series can be described thus: Bactericidal activity against methicillin-resistant Staphylococcus aureus EAMC30 using fresh sample in DMSO after 24 to 48 hrs by CLSI method. In kind it is functional.
Series [6] has as its system Enterococcus faecalis. Put plainly: Antibacterial activity against Enterococcus faecalis ATCC 29212 assessed as growth inhibition using fresh sample in DMSO by CLSI method. In kind it is functional, organism-based.
The subject of series [7] is Enterococcus faecalis. Put plainly: Bactericidal activity against Enterococcus faecalis ATCC 29212 using fresh sample in DMSO after 24 to 48 hrs by CLSI method. In kind it is functional.
Series [8] relates to Enterococcus faecium. Put plainly: Antibacterial activity against vancomycin-resistant Enterococcus faecium ATCC 700221 assessed as growth inhibition using fresh sample in DMSO by CLSI method. In kind it is functional, organism-based.
Series [9] has as its system Enterococcus faecalis. Put plainly: Antibacterial activity against Enterococcus faecalis ATCC 51299 assessed as growth inhibition using fresh sample in DMSO by CLSI method. In kind it is functional, organism-based.
Series [10] concerns Enterococcus faecalis. The series can be described thus: Bactericidal activity against Enterococcus faecalis ATCC 51299 using fresh sample in DMSO after 24 to 48 hrs by CLSI method. In kind it is functional.
Series [11] deals with Enterococcus faecium. Put plainly: Bactericidal activity against vancomycin-resistant Enterococcus faecium ATCC 700221 using fresh sample in DMSO at 20 ug/ml after 24 to 48 hrs by CLSI method. In kind it is functional, organism-based.
The next series relates to Candida albicans. Put plainly: Antifungal activity against Candida albicans ATCC 90028 at 20 ug/ml by CLSI method. In kind it is functional, organism-based.
Series [12] in a line: Chemical stability in acetonitrile after 1 week by LC-MS analysis. In kind it is physicochemical. Conditions: 168 h.
Series [13] deals with Staphylococcus aureus. Put plainly: Antibacterial activity against Staphylococcus aureus ATCC 29213 assessed as growth inhibition using fresh sample in DMSO by CLSI method. In kind it is functional, organism-based.
Series [14] deals with Staphylococcus aureus. The series can be described thus: Antibacterial activity against methicillin-resistant Staphylococcus aureus ATCC 33591 assessed as growth inhibition using fresh sample in DMSO at 100 ug/ml by CLSI method. In kind it is functional, organism-based.
Series [15] concerns Staphylococcus aureus. The series can be described thus: Bactericidal activity against methicillin-resistant Staphylococcus aureus ATCC 33591 using fresh sample in DMSO at 100 ug/ml after 24 to 48 hrs by CLSI method. In kind it is functional, organism-based.
The test system of series [16] is Enterococcus faecalis. The series can be described thus: Bactericidal activity against Enterococcus faecalis ATCC 51299 using fresh sample in DMSO at 100 ug/ml after 24 to 48 hrs by CLSI method. In kind it is functional, organism-based.

Values after ≈ are worked out from the molar mass of the structure shown. Active and inactive are the calls of the source. The calls are words filed in the database; no cut-off is given here.

As usually defined, the MBC is the lowest tested concentration that kills the bacteria rather than only halting them. What is called IC50 is the concentration that inhibits the measured activity by half. Broadly, the MIC is the lowest concentration that inhibits growth of the organism.

As to `COc1cc(O)cc2c1C(=O)OC(CC(C)O)CC(O)C/C=C/C(O)CC(O)CC(O)C/C(C)=C/C=C/C=C/C=C/C=C/c1cc(O)cc(OC)c1C(=O)OC(CC(C)O)CC(O)C/C=C/C(O)CC(O)CC(O)C/C(C)=C/C=C/C=C/C=C/C=C/2` (configuration not stated), the MBC against Staphylococcus aureus [1] stood at 2.5 µg/mL (≈ 2.09 µM); in the series with Staphylococcus aureus [3], 1.2 µg/mL (≈ 1 µM); in the series on Staphylococcus aureus [5], 0.6 µg/mL (≈ 0.501 µM); against Enterococcus faecalis [7], 2.5 µg/mL (≈ 2.09 µM); with Enterococcus faecalis [10], 1.2 µg/mL (≈ 1 µM). For the same compound, the IC50 was 0.04 µg/mL (≈ 0.0334 µM) with Staphylococcus aureus [2]; less than 0.02 µg/mL in the series on Staphylococcus aureus [4]; 0.2 µg/mL (≈ 0.167 µM) in the series on Enterococcus faecalis [6]; 0.1 µg/mL (≈ 0.0835 µM) with Enterococcus faecium [8]; 0.2 µg/mL (≈ 0.167 µM) in the series on Enterococcus faecalis [9]; 0.04 µg/mL (≈ 0.0334 µM) in the series with Staphylococcus aureus [13]. The MIC with Staphylococcus aureus [2] came out at 1.2 µg/mL (≈ 1 µM); in the series with Staphylococcus aureus [4], 0.6 µg/mL (≈ 0.501 µM); in the series with Enterococcus faecalis [6], 0.6 µg/mL (≈ 0.501 µM); with Enterococcus faecium [8], 0.6 µg/mL (≈ 0.501 µM); in the series on Enterococcus faecalis [9] it was 0.6 µg/mL (≈ 0.501 µM); in the series on Staphylococcus aureus [13] it was 1.2 µg/mL (≈ 1 µM). Moreover, the outcome in the series with Enterococcus faecium [11] and in the series on Candida albicans was inactive. Also, the Stability entry in series [12] was “Unstable”.
As for `COc1cccc(OC)c1C(=O)N[C@@H]1C(=O)N2[C@@H]1SC(C)(C)[C@@H]2C(=O)O` [METHICILLIN], the minimal bactericidal concentration (MBC) against Staphylococcus aureus [1] was 12.5 µg/mL (≈ 32.9 µM); in the series with Enterococcus faecalis [7], 50 µg/mL (≈ 131 µM); with Enterococcus faecalis [10], 50 µg/mL (≈ 131 µM). In addition, the results for the IC50 in the series on Staphylococcus aureus [4], with Enterococcus faecalis [6] and in the series with Enterococcus faecalis [9] were 10.1 µg/mL (≈ 26.5 µM), 15.3 µg/mL (≈ 40.2 µM) and 14.2 µg/mL (≈ 37.3 µM), respectively. Also, the MIC in the series on Staphylococcus aureus [4] turned out to be 50 µg/mL (≈ 131 µM); with Enterococcus faecalis [6] it was 25 µg/mL (≈ 65.7 µM); in the series on Enterococcus faecalis [9], 50 µg/mL (≈ 131 µM); in the series with Staphylococcus aureus [13], 3.1 µg/mL (≈ 8.15 µM). The “growth inhibition (GI)” value in the series on Staphylococcus aureus [14] is “inactive”. In the series with Staphylococcus aureus [15], the outcome was inactive.
As to `CN[C@H](CC(C)C)C(=O)N[C@H]1C(=O)N[C@@H](CC(N)=O)C(=O)N[C@H]2C(=O)N[C@H]3C(=O)N[C@H](C(=O)N[C@H](C(=O)O)c4cc(O)cc(O)c4-c4cc3ccc4O)[C@H](O)c3ccc(c(Cl)c3)Oc3cc2cc(c3O[C@@H]2O[C@H](CO)[C@@H](O)[C@H](O)[C@H]2O[C@H]2C[C@](C)(N)[C@H](O)[C@H](C)O2)Oc2ccc(cc2Cl)[C@H]1O` [VANCOMYCIN], the MBC in the series with Staphylococcus aureus [1] turned out to be 50 µg/mL (≈ 34.5 µM); with Staphylococcus aureus [3], 1.6 µg/mL (≈ 1.1 µM); against Staphylococcus aureus [5], 0.4 µg/mL (≈ 0.276 µM); against Enterococcus faecalis [7], 50 µg/mL (≈ 34.5 µM). Also, the IC50 in the series on Staphylococcus aureus [2] is 0.8 µg/mL (≈ 0.552 µM); in the series with Staphylococcus aureus [4] it was 0.2 µg/mL (≈ 0.138 µM); in the series with Enterococcus faecalis [6], 1 µg/mL (≈ 0.69 µM); with Enterococcus faecalis [9] it was 3.4 µg/mL (≈ 2.35 µM); in the series on Staphylococcus aureus [13], 0.7 µg/mL (≈ 0.483 µM). For the same compound, the MIC with Staphylococcus aureus [2] is 1.6 µg/mL (≈ 1.1 µM); in the series with Staphylococcus aureus [4] it was 0.4 µg/mL (≈ 0.276 µM); with Enterococcus faecalis [6] it was 1.6 µg/mL (≈ 1.1 µM); in the series on Enterococcus faecalis [9], 6.2 µg/mL (≈ 4.28 µM); in the series with Staphylococcus aureus [13] it was 1.6 µg/mL (≈ 1.1 µM). In addition, the outcome in the series with Enterococcus faecalis [16] was inactive.

The values are drawn from ChEMBL document CHEMBL3576782, “Bacillusin A, an Antibacterial Macrodiolide from Bacillus amyloliquefaciens AP183” (J Nat Prod, 2015).
